Results taken from US9713613B2, “Methods and compositions for the treatment of cancer and related hyperproliferative disorders” (priority 2007, dated 2017).

Legend:
SREBP-1 = assay: Western blot of SREBP-1 processing in DU145 cells; format: cell-based, human; conditions: 6 hrs, IGF1
Description: To examine whether fatostatin A affects the proteolytic activation of SREBPs, whole cell lysates of DU145 cells treated with fatostatin A were analyzed by western blots with an antibody against the NH2 terminus of SREBP-1 (FIG. 3A). […] Similar results were obtained for SREBP-2 with an antibody against its COOH terminus (FIG. 3B).
DU145 prostate cancer cells were seeded on a 6-well plate at a density of 2×10^5 cells/well in a serum-free MEM incubated at 37° C. for overnight. The cells were then treated with DMSO or fatostatin A ([…]) in presence of IGF1 (1 μg/mL). After 6 hrs of incubation, the cells were harvested in PBS and lysated in an SDS buffer. The samples were separated on a 10% SDS-PAGE gel and blotted by using rabbit anti-SREBP-1 and anti-SREBP-2 antibodies. The specific bands were visualized by using enhanced chemiluminescent (ECL) detection reagents (Amersham).

PLAP-BP2 = PLAP-BP2 cleavage assay in CHO-K1 cells; format: cell-based, Chinese hamster; conditions: 20 μM
Excerpt: To determine if fatostatin affects the ER-Golgi translocation and proteolytic processing of SREBPs, a reporter assay developed by Sakai et al. (1998) was used. PLAP-BP2 in transfected CHO-K1 cells remains membrane-bound unless it is cleaved by S1P in the Golgi and secreted into the culture medium. In the assay, a secreted alkaline phosphatase, fused with an SREBP-2 fragment lacking the NH2-terminal DNA-binding domain (PLAP-BP2513-1141), permits monitoring of translocation and processing through changes in the fluorescence of a fluorogenic phosphatase substrate (FIG. 18C). When cells were co-transfected with plasmids encoding PLAP-BP2513-1141 and SCAP, PLAP phosphatase was secreted, generating fluorescence signals. […] The fatostatin-mediated inhibition of SREBP activation was confirmed by western blot analysis of SREBPs. […] Similar results were obtained for SREBP-1 (FIG. 22).
PLAP-BP2 Cleavage. On day 0, CHO-K1 cells were plated out onto a 96-well plate in medium A. On day 2, the cells were transiently co-transfected with pCMV-PLAP-BP2(513-1141), pCMV-SCAP and pAc-β-gal, using Lipofectamine reagent (Invitrogen). […]

SUM159 cells = assay: SUM159 cell growth, WST-1 assay, and lipogenic gene expression; format: cell-based, human
Description: Cells were seeded onto 96 well plates at a density of 10000 cells/well in 100 ul medium containing 2% charcoal stripped serum. After 24 hours, compound 19 was added to the cells at the indicated concentrations for another 48 hours. Cell viability was determined using WST-1 assay.
Cells seeded onto 96 well plates at a density of 5000 cells/well in 100 μl medium containing 2% charcoal treated serum. After 24 hours different concentrations of compound 19 were added for an additional 48 hours. Cell viability was measured using WST-1 Cell Viability and Proliferation Assay (ScienCell Research Laboratory, Carlsbad Calif.). Changes in expression levels of lipogenic genes mRNA was determined in cells that were treated with 10 μM. […] Insig2 gene which is not known to be regulated by these transcription factors was not affected by the treatment (FIG. 33B).

RPMI8226 cells = assay: RPMI8226 cell growth, MTT assay; format: cell-based, human; conditions: 5 μM, 48 hours
Description: 10,000 MOLT-4 cells (FIGS. 35A-35C) and 20,000 RPM18226 cells (FIGS. 35D-35F) were seeded onto 96 well plate in RPMI 1640 medium containing 5% FBS or fat-free charcoal treated serum (FF-FBS) for 24 hours at 37 C. MOLT-4 and RPM18226 cells were treated for additional 48 hours with different concentrations of compound 19 (None control without DMSO, Vehicle with DMSO, 1, 2, 5, 10 and 20 μM in DMSO; RPM18226 cells also were treated with 3 μM in DMSO). At the end of 48 hours cells were subjected to MTT assay to determine viability. Values are depicted as means±SD; *P<0.05.
20,000 MOLT-4 cells (FIGS. 36A-36C) and 20,000 RPM18226 cells (FIGS. 36D-36F) cells were seeded onto 96 well plates in RPMI 1640 Medium containing 5% Fetal bovine serum (FBS) or 5% fat free charcoal treated serum (FF-FBS) for 24 hours at 37 C. Cells then were treated for additional 48 hours with different concentrations of compound 17 (None control without DMSO, Vehicle with DMSO, 1, 2, 3, 5, 10 and 20 μM in DMSO). At the end of the 48 hours treatment cells were subjected to MTT assay to determine viability. Values are depicted as means±SD (n=3); **P<0.001; ***P<0.0001.
RPM18226 cells were grown under the same conditions as the MOLT-4 cells. 20,000 cells were seeded into 96 well plates for 24 hrs prior to treatment with increasing concentrations of compound 19 as described for MOLT-4 cells. […]

## CCCc1cc(-c2nc(-c3ccc(C)cc3)cs2)ccn1 [Compound 1, 2-propyl-4-(4-p-tolylthiazol-2-yl)pyridine]
SREBP-1
  amounts of mature and precursor forms of SREBP-1 (western blot): decreased the amounts of the 68 KDa mature form of SREBP-1 in a dose-dependent manner
PLAP-BP2
  secretion of PLAP phosphatase (PLAP-BP2 cleavage): decreased

## CCCc1cc(-c2nc(-c3ccc(NS(C)(=O)=O)cc3)cs2)ccn1 [Compound 19, N-(4-(2-(2-propylpyridin-4-yl)thiazol-4-yl)phenyl)methanesulfonamide]
SUM159 cells; 10 μM, Insig2 not affected
  expression levels of lipogenic genes mRNA under the control of SREBPs: significant downregulation
SUM159 cells; different concentrations, 48 hours, 2% charcoal treated serum
  cell growth / viability: inhibition of cell growth and a toxic effect
RPMI8226 cells
  growth inhibition in 5% FF FBS relative to 5% FBS: about 1.5
